This note sets out measurements from article PMC7589200, “Identification of Putative Non-Substrate-Based XT-I Inhibitors by Natural Product Library Screening” (Biomolecules, 2020).

For the assay, the target named is T1, recombinant human XT-I (Homo sapiens, UniProt Q86Y38).
T1 sequence (Q86Y38 252-959 limits assumed): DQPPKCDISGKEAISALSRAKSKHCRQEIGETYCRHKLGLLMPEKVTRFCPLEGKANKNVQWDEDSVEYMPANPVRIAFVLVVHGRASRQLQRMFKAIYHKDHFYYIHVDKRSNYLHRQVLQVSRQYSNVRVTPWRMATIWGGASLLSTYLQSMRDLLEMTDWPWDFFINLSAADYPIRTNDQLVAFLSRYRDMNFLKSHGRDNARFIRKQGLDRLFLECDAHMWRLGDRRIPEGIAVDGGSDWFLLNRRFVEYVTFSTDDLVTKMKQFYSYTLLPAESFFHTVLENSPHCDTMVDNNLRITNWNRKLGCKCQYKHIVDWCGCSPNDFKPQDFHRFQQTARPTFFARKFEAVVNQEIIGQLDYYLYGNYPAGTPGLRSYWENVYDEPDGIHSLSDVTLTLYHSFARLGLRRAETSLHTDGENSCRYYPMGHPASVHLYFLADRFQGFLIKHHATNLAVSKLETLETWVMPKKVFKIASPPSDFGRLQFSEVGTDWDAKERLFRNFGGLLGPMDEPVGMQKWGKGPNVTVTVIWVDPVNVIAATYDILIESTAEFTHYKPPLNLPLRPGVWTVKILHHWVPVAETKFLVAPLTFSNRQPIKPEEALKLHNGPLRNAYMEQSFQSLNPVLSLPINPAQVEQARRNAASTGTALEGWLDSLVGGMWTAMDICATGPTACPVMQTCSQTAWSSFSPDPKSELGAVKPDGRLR
The assay is described as follows: NP library inhibitor screening, UPLC/ESI-MS/MS XT-I assay. It is filed as biochemical. The settings on record: Table S1; 50 μM inhibitor; relative to negative control containing DMSO; technical duplicates.
As to `C[C@@H]1[C@H](O)[C@@H](C)/C=C/C=C/CC/C=C/C=C/C=C/C=C/[C@H](O[C@H]2O[C@@H](C)[C@H](O)[C@@H](N)[C@H]2O)C[C@@H]2O[C@](O)(C[C@@H](O)[C@H](O)CC[C@@H](O)C[C@@H](O)C[C@@H](O)CC(=O)O[C@H]1C)C[C@H](O)[C@H]2C(=O)O` [Compound 44, Nystatin (Fungicidin)], the “XT-I Activity [%]” value is recorded as 52%.
Regarding `O=[N+]([O-])c1cn2c(n1)OC[C@@H](OCc1ccc(OC(F)(F)F)cc1)C2` [Compound 45, PA-824], the remaining activity at 50 µM stood at 75%.
`C[C@H]1O[C@H](O[C@H]2[C@H](O)[C@@H](O)[C@@H](O[C@H]3[C@H](O)[C@@H](O)C(O)O[C@@H]3CO)O[C@@H]2CO)[C@H](O)[C@@H](O)[C@@H]1N[C@H]1C=C(CO)[C@@H](O)[C@H](O)[C@H]1O` (some centres unmarked) [Compound 46, Acarbose]: the remaining activity at 50 µM came out at 92%.
As to `COc1c(N2CCNC(C)C2)c(F)cc2c(=O)c(C(=O)O)cn(C3CC3)c12` (centres unmarked) [Compound 47, Gatifloxacin], the remaining activity at 50 µM turned out to be 98%.
Still for that read-out and setting: then `CN(C)c1cc(NC(=O)CNC(C)(C)C)c(O)c2c1C[C@H]1C[C@H]3[C@H](N(C)C)C(O)=C(C(N)=O)C(=O)[C@@]3(O)C(O)=C1C2=O` [Compound 48, Tigecycline], with 59%; and `C=CC1=C(C(=O)O)N2C(=O)[C@@H](NC(=O)/C(=N\O)c3csc(N)n3)[C@H]2SC1` [Compound 49, Cefdinir], with 72%.
On the same count and under the same terms, then `NC(=O)N/N=C/c1ccc([N+](=O)[O-])o1` [Compound 50, Nitrofural], with 104%; and `Nc1ccc(S(N)(=O)=O)cc1` [Compound 51, Sulfanilamide], with 118%; and `CO/N=C(\C(=O)N[C@@H]1C(=O)N2C(C(=O)OCOC(=O)C(C)(C)C)=C(/C=C\c3scnc3C)CS[C@H]12)c1csc(N)n1` [Compound 52, Cefditoren Pivoxil], with 104%.
As for `CC[C@H]1OC(=O)[C@H](C)[C@@H](O[C@H]2C[C@@](C)(OC)[C@@H](O)[C@H](C)O2)[C@H](C)[C@@H](O[C@@H]2O[C@H](C)C[C@H](N(C)C)[C@H]2O)[C@](C)(O)C[C@@H](C)CN(C)[C@H](C)[C@@H](O)[C@]1(C)O` [Compound 53, Azithromycin], the remaining activity at 50 µM was 109%.
As to `NC(=O)c1cccnc1` [Compound 54, Nicotinamide (Vitamin B3)], the “XT-I Activity [%]” value is 116%.
In the case of `C[C@H]1COc2c(N3CCN(C)CC3)c(F)cc3c(=O)c(C(=O)O)cn1c23` [Compound 55, Levofloxacin], the remaining activity at 50 µM turned out to be 111%.
On the same count and under the same terms, then `COc1ccc2[nH]cc(CCNC(C)=O)c2c1` [Compound 56, Melatonin], with 99%; and `C[C@@H]1CC[C@H]2[C@@H](C)C(=O)O[C@@H]3O[C@@]4(C)CC[C@@H]1[C@]32OO4` [Compound 57, Artemisinin], with 93%; and `O=c1c(-c2ccc(O)cc2)coc2cc(O)cc(O)c12` [Compound 58, Genistein], with 94%.
Still for that read-out and setting: then `CC(=O)NC[C@H]1CN(c2ccc(N3CCOCC3)c(F)c2)C(=O)O1` [Compound 59, Linezolid], with 103%.
`Clc1ccccc1C(c1ccccc1)(c1ccccc1)n1ccnc1` [Compound 60, Clotrimazole]: the remaining activity at 50 µM is 101%.
Same read-out and setting: then `Nc1ncnc2c1ncn2[C@@H]1O[C@H](CO)[C@@H](O)[C@H]1O` [Compound 61, Adenosine], with 103%; and `C[C@]12CCC(=O)C=C1CC[C@@H]1[C@@H]2[C@@H](O)C[C@@]2(C)[C@H]1CC[C@]2(O)C(=O)CO` [Compound 62, Hydrocortisone], with 122%; and `Nc1ccc(S(=O)(=O)Nc2ncccn2)cc1` [Compound 63, Sulfadiazine], with 108%.
Still for that read-out and setting: then `Oc1c(Cl)cc(Cl)c2cccnc12` [Compound 64, Chloroxine], with 121%; and `CC1=CC(=O)c2ccccc2C1=O` [Compound 66, Menadione], with 106%.
On to `COc1cccc2c1C(=O)c1c(O)c3c(c(O)c1C2=O)C[C@@](O)(C(=O)CO)C[C@@H]3O[C@H]1C[C@H](N)[C@H](O)[C@H](C)O1.Cl` [Compound 67, Doxorubicin (Adriamycin) HCl], for which the “XT-I Activity [%]” value is given as 113%.
As to `C[C@@H](c1ncncc1F)[C@](O)(Cn1cncn1)c1ccc(F)cc1F` [Compound 70, Voriconazole], the remaining activity at 50 µM worked out at 94%.
On to `CCN1CCN(C(=O)N[C@@H](C(=O)N[C@@H]2C(=O)N3C(C(=O)O)=C(CSc4nnnn4C)CS[C@H]23)c2ccc(O)cc2)C(=O)C1=O` [Compound 71, Cefoperazone], for which the remaining activity at 50 µM was 83%.
Same read-out and setting: then `CC1=C(/C=C/C(C)=C/C=C/C(C)=C/C(=O)O)C(C)(C)CCC1` [Compound 72, Tretinoin], with 84%; and `CC(=O)[C@H]1CC[C@H]2[C@@H]3CCC4=CC(=O)CC[C@]4(C)[C@H]3CC[C@]12C` [Compound 73, Progesterone], with 113%.
In the case of `C[C@H](CCC(=O)O)[C@H]1CC[C@H]2[C@@H]3[C@H](O)C[C@@H]4C[C@H](O)CC[C@]4(C)[C@H]3CC[C@]12C` [Compound 75, Chenodeoxycholic Acid], the remaining activity at 50 µM stood at 113%.
The same measure, in the same setting: then `Cc1ncc([N+](=O)[O-])n1CCO` [Compound 76, Metronidazole], with 109%.
Same read-out and setting: then `COc1c2occc2cc2ccc(=O)oc12` [Compound 77, Methoxsalen], with 107%.
For the compound `O=c1[nH]cc(F)c(=O)[nH]1` [Compound 78, Fluorouracil (5-Fluoracil, 5-FU)], the “XT-I Activity [%]” value is recorded as 137%.
On to `C/C(=C\c1csc(C)n1)[C@@H]1C[C@@H]2O[C@@H]2CCC[C@H](C)[C@H](O)[C@@H](C)C(=O)C(C)(C)[C@@H](O)CC(=O)O1` [Compound 79, Epothilone A], for which the remaining activity at 50 µM was 119%.
In the case of `CCCCCCCCCC(=O)N[C@@H](Cc1c[nH]c2ccccc12)C(=O)N[C@H](CC(N)=O)C(=O)N[C@@H](CC(=O)O)C(=O)N[C@@H]1C(=O)NCC(=O)N[C@@H](CCCN)C(=O)N[C@@H](CC(=O)O)C(=O)N[C@H](C)C(=O)N[C@@H](CC(=O)O)C(=O)NCC(=O)N[C@H](CO)C(=O)N[C@@H]([C@H](C)CC(=O)O)C(=O)N[C@@H](CC(=O)c2ccccc2N)C(=O)O[C@@H]1C` [Compound 80, Daptomycin], the remaining activity at 50 µM was found to be 86%.
On to `N[C@@H](C(=O)N[C@@H]1C(=O)N2C(C(=O)O)=C(Cl)CS[C@H]12)c1ccccc1` [Compound 81, Cefaclor], for which the remaining activity at 50 µM is 71%.
Consider `COc1cnc(NS(=O)(=O)c2ccc(N)cc2)nc1` [Compound 82, Sulfameter], for which the remaining activity at 50 µM came to 126%.
On to `C[C@]12CC[C@@H]3c4ccc(O)cc4CC[C@H]3[C@@H]1CCC2=O` [Compound 83, Estrone], for which the remaining activity at 50 µM was found to be 120%.
`C[C@]12CC[C@@H]3c4ccc(O)cc4CC[C@H]3[C@@H]1CC[C@@H]2O` [Compound 84, Estradiol]: the remaining activity at 50 µM stood at 128%.
Regarding `CCc1cc(C(N)=S)ccn1` [Compound 85, Ethionamide], the remaining activity at 50 µM was found to be 130%.
